Consider 14 molecules from ChEMBL document CHEMBL1201862, “PubChem BioAssay data set” (2004).

Among the test systems are COLO 205; EKVX; HCT-15; HL-60; HOP-92; IGROV-1; K562; NCI-H23; RXF 393; SF-268; SK-MEL-2; SK-MEL-5; TK-10; UACC-257; UACC-62; RPMI-8226.
What all share (assay): DTP human tumour cell line panel, 48 h

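Each compound was tested at five concentrations against cells in 96-well plates for 48 hours. GI50: concentration for 50% inhibition of growth.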 The source made the active and inactive calls. Cut-off read from the data, not from the text of the source: active = GI50 up to about 1.1 µM and inactive = higher.

As usually defined, the GI50 is the concentration that inhibits growth by half. As to `O=C(/C=C1\Nc2ccccc2C(=O)N1c1ccccc1Cl)c1ccccc1`, the GI50 was > 100 µM (inactive) with COLO 205; > 100 µM (inactive) with EKVX; above 100 µM in the assay on HCT-15; 47 µM (inactive) in the assay on HL-60; 17.9 µM (inactive) with HOP-92; > 100 µM (inactive) with IGROV-1. Besides, the GI50 was 87.5 µM (inactive) in the assay with K562; > 100 µM (inactive) in the assay with NCI-H23; > 100 µM (inactive) with RXF 393; > 100 µM (inactive) in the assay on SF-268; > 100 µM (inactive) in the assay on SK-MEL-2; > 100 µM (inactive) in the assay with SK-MEL-5. The GI50 in the assay on TK-10, in the assay on UACC-257 and with UACC-62 was > 100 µM (inactive) in each case.
`CCNc1nc2c(=O)n(C)c(=O)n(C)c2s1`: the GI50 in the assay with COLO 205 is > 100 µM (inactive); with EKVX, > 100 µM (inactive); in the assay with HCT-15 it was above 100 µM; in the assay with HL-60, > 100 µM (inactive); in the assay with HOP-92, > 100 µM (inactive); in the assay on IGROV-1 it was > 100 µM (inactive). Further, the GI50 in the assay on K562, in the assay with NCI-H23, in the assay with RPMI-8226, with RXF 393, with SF-268 and in the assay with SK-MEL-2 was > 100 µM (inactive) each time. For the same molecule, the GI50 in the assay with TK-10, with UACC-257 and in the assay with UACC-62 was > 100 µM (inactive) throughout.
`CC1=CC(=O)N(c2c(C)cccc2Cl)C(C)N1` (stereo not given): the GI50 was > 100 µM (inactive) in the assay on COLO 205; > 100 µM (inactive) in the assay on EKVX; above 100 µM with HCT-15; > 100 µM (inactive) in the assay with HL-60; > 100 µM (inactive) in the assay with HOP-92; > 100 µM (inactive) with IGROV-1. Further, the GI50 in the assay on K562, in the assay on NCI-H23, in the assay with RXF 393, in the assay on SF-268, in the assay on SK-MEL-2 and with SK-MEL-5 was > 100 µM (inactive) each time. Further, the GI50 with TK-10, in the assay with UACC-257 and in the assay with UACC-62 was > 100 µM (inactive) each time.
Turning to `C=C1C=CC2(Br)OC3CC(C)(Cl)C(Br)CC13C2(C)C` (stereo not given), the GI50 in the assay with COLO 205 is 16.1 µM (inactive); with EKVX it was 24.5 µM (inactive); with HCT-15, 23 µM; with HL-60 it was 15.2 µM (inactive); with HOP-92, 21.2 µM (inactive); with IGROV-1, 28.9 µM (inactive). Moreover, the GI50 in the assay on K562 was 17.9 µM (inactive); with NCI-H23 it was 19.1 µM (inactive); in the assay with RPMI-8226 it was 23.2 µM (inactive); in the assay with SF-268, 30.1 µM (inactive); with SK-MEL-2, 17.6 µM (inactive); in the assay on SK-MEL-5 it was 17.3 µM (inactive). Further, the results for the GI50 in the assay with TK-10, with UACC-257 and with UACC-62 were 37.2 µM (inactive), 18.5 µM (inactive) and 17.8 µM (inactive), respectively.
In the case of `COc1cc(C(O)C(=O)c2nc3ccc([N+](=O)[O-])cc3nc2O)ccc1O` (stereo not given), the GI50 with COLO 205 is > 100 µM (inactive); with EKVX it was 90.6 µM (inactive); in the assay on HCT-15 it was above 100 µM; in the assay with HL-60 it was 70.5 µM (inactive); with IGROV-1, > 100 µM (inactive); in the assay on K562, 57.1 µM (inactive). For the same molecule, the GI50 in the assay with NCI-H23 is > 100 µM (inactive); in the assay with RPMI-8226, 77.3 µM (inactive); in the assay with SF-268, > 100 µM (inactive); with SK-MEL-2, > 100 µM (inactive); in the assay on SK-MEL-5, 81.1 µM (inactive); in the assay with TK-10, > 100 µM (inactive). Moreover, the GI50 is > 10 µM (inactive) in the assay on UACC-257 and 73.1 µM (inactive) in the assay on UACC-62.
Consider `Cc1ccc(C)c(NC(=O)/C(=N\NC(N)=S)C(C#N)c2ccccc2)c1` (stereo not given), for which the GI50 is > 100 µM (inactive) in the assay with COLO 205; > 100 µM (inactive) in the assay on EKVX; above 100 µM in the assay with HCT-15; > 100 µM (inactive) in the assay on HL-60; > 100 µM (inactive) with HOP-92; > 100 µM (inactive) in the assay with IGROV-1. Further, the GI50 with K562, in the assay with NCI-H23, with RPMI-8226, with SF-268, in the assay with SK-MEL-2 and in the assay with SK-MEL-5 was > 100 µM (inactive) in each case. In addition, the GI50 in the assay on TK-10, with UACC-257 and with UACC-62 was > 100 µM (inactive) in each case.
`O=C(c1ccccc1)C(c1ccccc1)C1(O)C(=O)Nc2ccc([N+](=O)[O-])cc21` (stereo not given): the GI50 was 26.2 µM (inactive) with COLO 205; > 100 µM (inactive) in the assay on EKVX; above 100 µM in the assay on HCT-15; 42.9 µM (inactive) in the assay on HL-60; 31.8 µM (inactive) in the assay on HOP-92; > 100 µM (inactive) in the assay with IGROV-1. Further, the GI50 in the assay on K562 was 42.7 µM (inactive); with NCI-H23, 92 µM (inactive); with RPMI-8226, 37.7 µM (inactive); with RXF 393 it was > 100 µM (inactive); with SF-268 it was > 100 µM (inactive); in the assay on SK-MEL-2, > 100 µM (inactive). The values for the GI50 in the assay with SK-MEL-5, in the assay on TK-10 and with UACC-62 were 24 µM (inactive), > 100 µM (inactive) and 58.1 µM (inactive), respectively.
As for `COc1cccc(NC(=O)C(C)(C)C)c1C=O`, the GI50 in the assay on COLO 205 is > 100 µM (inactive); with EKVX it was 35.3 µM (inactive); in the assay on HCT-15, 35.4 µM; with HL-60, 26.7 µM (inactive); in the assay on HOP-92 it was 54 µM (inactive); in the assay on IGROV-1, 56.1 µM (inactive). In addition, the GI50 is 26.9 µM (inactive) with K562; 48.3 µM (inactive) in the assay on NCI-H23; 19.4 µM (inactive) in the assay on RPMI-8226; 47.5 µM (inactive) in the assay on SF-268; 73.6 µM (inactive) in the assay with SK-MEL-2; 88.1 µM (inactive) in the assay on SK-MEL-5. The values for the GI50 in the assay on TK-10, in the assay on UACC-257 and with UACC-62 were 35 µM (inactive), 65.8 µM (inactive) and 74.3 µM (inactive), respectively.
As for `COC(=O)C12C3C4C1C1C2C3C41C(=O)N(C(C)C)C(C)C` (stereo not given), the GI50 in the assay with COLO 205 was > 100 µM (inactive); with EKVX, > 100 µM (inactive); with HCT-15, above 100 µM; in the assay on HL-60 it was > 100 µM (inactive); with HOP-92 it was > 100 µM (inactive); in the assay with IGROV-1, > 100 µM (inactive). In addition, the GI50 in the assay with K562, with NCI-H23, with SF-268, in the assay on SK-MEL-5, in the assay with TK-10 and in the assay on UACC-257 was > 100 µM (inactive) each time. The GI50 with UACC-62 is > 100 µM (inactive).
Consider `O=[N+]([O-])c1cc(C(F)(F)F)cc([N+](=O)[O-])c1CCl`, for which the GI50 with COLO 205 is 2.13 µM (inactive); with EKVX, 6.81 µM (inactive); with HCT-15, 1.58 µM; in the assay on HL-60 it was 1.31 µM (inactive); in the assay with HOP-92, 4.9 µM (inactive); in the assay with IGROV-1 it was 2.32 µM (inactive). The GI50 in the assay with K562 is 0.18 µM (active); in the assay with NCI-H23, 1.69 µM (inactive); in the assay with RPMI-8226 it was 1.16 µM (inactive); in the assay with RXF 393, 1.73 µM (inactive); in the assay on SF-268 it was 4.09 µM (inactive); with SK-MEL-5 it was 0.456 µM (active). The GI50 in the assay on TK-10 is 8.53 µM (inactive); in the assay with UACC-257, 3.72 µM (inactive); in the assay on UACC-62, 0.336 µM (active).
Consider `O=C(CC1(O)C(=O)Nc2ccc([N+](=O)[O-])cc21)c1ccc(Br)cc1` (stereo not given), for which the GI50 in the assay on COLO 205 is > 100 µM (inactive); in the assay on EKVX, > 100 µM (inactive); in the assay on HCT-15, above 100 µM; in the assay with HL-60 it was 18.6 µM (inactive); in the assay with K562 it was 54.6 µM (inactive); in the assay on NCI-H23, 40.6 µM (inactive). For the same molecule, the GI50 was 35.5 µM (inactive) in the assay on RPMI-8226; 28.6 µM (inactive) in the assay with RXF 393; 55.1 µM (inactive) with SF-268; > 100 µM (inactive) in the assay on SK-MEL-2; 32.7 µM (inactive) in the assay on TK-10; 69.8 µM (inactive) in the assay on UACC-257. Moreover, the GI50 with UACC-62 was 47.2 µM (inactive).
Consider `COC(OC)C(C)CC(=O)N(C)C` (stereo not given), for which the GI50 in the assay on COLO 205 is > 100 µM (inactive); in the assay on EKVX, > 100 µM (inactive); with HCT-15 it was above 100 µM; in the assay on HL-60, > 100 µM (inactive); in the assay with HOP-92 it was > 100 µM (inactive); in the assay with IGROV-1, > 100 µM (inactive). The GI50 in the assay with K562, in the assay on RPMI-8226, with SF-268, in the assay on SK-MEL-2, with SK-MEL-5 and in the assay on TK-10 was > 100 µM (inactive) throughout. In addition, in the assay on UACC-62, the GI50 was > 100 µM (inactive).
Consider `NC1=NC(=O)C(CC(=O)Nc2ccc(Cl)cc2Cl)S1` (stereo not given), for which the GI50 with COLO 205 is > 100 µM (inactive); in the assay on EKVX it was > 100 µM (inactive); in the assay with HCT-15, above 100 µM; with IGROV-1 it was > 100 µM (inactive); with K562, > 100 µM (inactive); with NCI-H23 it was > 100 µM (inactive). Besides, the GI50 in the assay with RPMI-8226, with SF-268, with SK-MEL-2, in the assay with SK-MEL-5, in the assay with TK-10 and in the assay with UACC-257 was > 100 µM (inactive) throughout. Also, the GI50 in the assay with UACC-62 was > 100 µM (inactive).
Regarding `CCOC(=O)C1C=C2O[C@@H]3OC4(CCCCC4)O[C@@H]3C2C2C(=O)CCC(=O)[C@@]12C(=O)OC` (stereo not given in full), the GI50 in the assay on COLO 205 is > 100 µM (inactive); in the assay with EKVX, > 100 µM (inactive); in the assay with HCT-15, above 100 µM; with HL-60, > 100 µM (inactive); in the assay with HOP-92 it was > 100 µM (inactive); in the assay on IGROV-1, > 100 µM (inactive). Besides, the GI50 with K562, in the assay on NCI-H23, in the assay on RPMI-8226, with SF-268, in the assay with SK-MEL-2 and with SK-MEL-5 was > 100 µM (inactive) throughout. In addition, the GI50 with UACC-257 and with UACC-62 was > 100 µM (inactive) in each case.
